The text below walks through data of publication PMC6792352, “Limited Chemical Structural Diversity Found to Modulate Thyroid Hormone Receptor in the Tox21 Chemical Library” (Environmental Health Perspectives, 2019).

Structures can show the parent of a compound that is named as a salt.

The nature of one data set: in vitro. The following applies: rat, gh3-tre-luc cells, AC50 (uM) modified / 1000.
`Nc1cc(S(=O)(=O)O)cc2cc(S(=O)(=O)O)cc(O)c12` [Monosodium 8-amino-1-naphthol-3,6-disulfonate]: the CC50 at 24 h was > 90 µM.
With `CCCCCCCCCCCCCOP(=O)(O)O` [Monotridecyl phosphate], the CC50 at 24 h was > 90 µM.
The same measure, in the same setting: the value for `CC(C)(O)c1ccccc1CC[C@@H](SCC1(CC(=O)O)CC1)c1cccc(/C=C/c2ccc3ccc(Cl)cc3n2)c1` [Montelukast sodium] was 35.1 µM; that for `CN(C)C(=O)Nc1ccc(Cl)cc1` [Monuron] was > 90 µM.
The same measure, in the same setting: the figure for `Cc1ccc(C2(O)CCN(CCCC(=O)c3ccc(F)cc3)CC2)cc1` [Moperone] is 30.1 µM; for `Cc1ccsc1/C=C/C1=NCCCN1C` [Morantel tartrate] it is > 20 µM; for `CCOC(=O)Nc1ccc2c(c1)N(C(=O)CCN1CCOCC1)c1ccccc1S2` [Moricizine hydrochloride] it is > 20 µM.
As for `O=c1c(O)c(-c2ccc(O)cc2O)oc2cc(O)cc(O)c12` [Morin hydrate], the cytotoxic concentration (CC50) at 24 h was > 90 µM.
Same read-out and setting: the value for `N=C(N)/N=C(\N)N1CCOCC1` [Moroxidine hydrochloride] was > 20 µM; that for `O=C(NCN1CCOCC1)c1cnccn1` [Morphazinamide] was > 50 µM.
As to `C1COCCN1` [Morpholine], the CC50 at 24 h was > 100 µM.
`O=C1NC2CCCCN2C12CCN(CCCN1c3ccccc3CCc3ccc(Cl)cc31)CC2` (stereo not shown) [Mosapramine]: the CC50 at 24 h is 5.62 µM. That is a single-digit micromolar value.
Same read-out and setting: the figure for `CCOc1cc(N)c(Cl)cc1C(=O)NCC1CN(Cc2ccc(F)cc2)CCO1` (stereo not shown) [Mosapride citrate] is > 50 µM; for `CO[C@@]1(NC(=O)[C@H](C(=O)O)c2ccc(O)cc2)C(=O)N2C(C(=O)O)=C(CSc3nnnn3C)CO[C@@H]21` [Moxalactam disodium] it is > 20 µM.
The same measure, in the same setting: the figure for `COc1c(N2C[C@@H]3CCCN[C@@H]3C2)c(F)cc2c(=O)c(C(=O)O)cn(C3CC3)c12` [Moxifloxacin hydrochloride] is > 50 µM; for `CC(=O)Oc1cc(C(C)C)c(OCCN(C)C)cc1C` [Moxisylyte hydrochloride] it is > 20 µM.
Take `COc1nc(C)nc(Cl)c1N=C1NCCN1` [Moxonidine]: the CC50 at 24 h is > 20 µM.
Same read-out and setting: the figure for `O=C(O)[C@@H](O)[C@H](O)[C@H](O)[C@@H](O)C(=O)O` [Mucic acid] is > 50 µM.
Same read-out and setting: the value for `C/C(=C\C(=O)OCCCCCCCCC(=O)O)C[C@@H]1OC[C@H](C[C@@H]2O[C@H]2[C@@H](C)[C@H](C)O)[C@@H](O)[C@H]1O` [Mupirocin] was > 50 µM; that for `CC(=O)c1c(C)c([N+](=O)[O-])c(C(C)(C)C)c([N+](=O)[O-])c1C` [Musk ketone] was 80.9 µM.
On to `CCCCC(C#N)(Cn1cncn1)c1ccc(Cl)cc1` (stereo not shown) [Myclobutanil], for which the CC50 at 24 h was > 90 µM.
In turn, `COc1c(C)c2c(c(O)c1C/C=C(\C)CCC(=O)OCCN1CCOCC1)C(=O)OC2` [Mycophenolate mofetil] had a CC50 at 24 h of 1.07 µM.
On the same count and under the same terms, the value for `COc1c(C)c2c(c(O)c1C/C=C(\C)CCC(=O)O)C(=O)OC2` [Mycophenolic acid] was 1.55 µM; that for `CCCCCCCCCCCCCCNCCO` [Myralact] was > 50 µM.
The same measure, in the same setting: the value for `C=CC(=C)CCC=C(C)C` [Myrcene] was > 90 µM; that for `CCCCCCC(=O)CCCCCC/C=C/C[C@@H](O)[C@H](O)[C@@](N)(CO)C(=O)O` [Myriocin] was > 50 µM; that for `CCCCCCCCCCCCCC[N+](C)(C)C` [Myristyltrimethylammonium chlorideN,N,N-Trimethyltetradecan-1-aminium chloride] was 9.07 µM.

The data set is the same for the next values; noted with them: rat, gh3-tre-luc cells, AC50 (uM) modified / 1000, Tox21_110001=Tox21_200172; viability, 1 nM T3 present, 24 h.
Turning to `C=CCc1cc(OC)c2c(c1)OCO2` [Myristicin], the CC50 at 24 h was > 100 µM.

Staying with this data set, now noted: rat, gh3-tre-luc cells, AC50 (uM) modified / 1000, Tox21_110001=Tox21_201195; viability, 1 nM T3 present, 24 h.
As to `COc1c(C(C)(C)C)cc([N+](=O)[O-])c(C)c1[N+](=O)[O-]` [Musk ambrette], the CC50 at 24 h is > 90 µM.

The same data set, now with this note: rat, gh3-tre-luc cells, AC50 (uM) modified / 1000, Tox21_110001=Tox21_201305; viability, 1 nM T3 present, 24 h.
The compound `O=C/C(Cl)=C(/Cl)C(=O)O` [Mucochloric acid] displayed a CC50 at 24 h of 74 µM.

Still in this data set, the particulars now being: rat, gh3-tre-luc cells, AC50 (uM) modified / 1000, Tox21_110001=Tox21_302857; viability, 1 nM T3 present, 24 h.
`O=C/C(Cl)=C(/Cl)C(=O)O` [Mucochloric acid] came in with a CC50 at 24 h of 63.6 µM.
